These are literature values, as cited in PMC6264278, “Corydaline Inhibits Multiple Cytochrome P450 and UDP-Glucuronosyltransferase Enzyme Activities in Human Liver Microsomes” (Molecules, 2011).

In general, IC50 refers to the concentration that gives 50% inhibition. In general, Ki refers to the equilibrium dissociation constant of an inhibitor or competing ligand from its target.

One data set has as its system CYP2D6. Set-up: method as in PMID 21425377, PMID 14570772. As to conditions: read-out: IC50, inhibitory effect on CYP2D6 activity; cited from earlier work.
In the next data set the test system is UGT1A9. Also noted: method as in PMID 21245288. The settings on record: read-out: Ki, UGT1A9 inhibition; cited from earlier work.
The test system of the next data set is CYP2C9. As to conditions: read-out: IC50, CYP2C9 inhibition; cited from earlier work.

Take `COc1ccc2cc3[n+](cc2c1OC)CCc1cc2c(cc1-3)OCO2` [berberine]: the IC50 in the data set with CYP2D6 is 49.4 µM.
Consider `O=C(O)c1cccnc1Nc1cccc(C(F)(F)F)c1` [niflumic acid], for which the Ki in the data set on UGT1A9 was 0.1 to 0.4 µM.
For `COc1cc2c(cc1OC)-c1cc3ccc(OC)c(OC)c3c[n+]1CC2` [palmatine], the half-maximal inhibitory concentration (IC50) with CYP2D6 was 92.6 µM.
Consider `Nc1ccc(S(=O)(=O)Nc2ccnn2-c2ccccc2)cc1` [sulfaphenazole], for which, in the data set with CYP2C9, the half-maximal inhibitory concentration (IC50) was […].
